This is an account of results in publication PMC3646888 (PLoS ONE, 2013).

SMILES strings stand for the structures.

The data set concerns the target T1, CYP1A2r (Rattus norvegicus, UniProt P04799).
T1 sequence (P04799 1-513): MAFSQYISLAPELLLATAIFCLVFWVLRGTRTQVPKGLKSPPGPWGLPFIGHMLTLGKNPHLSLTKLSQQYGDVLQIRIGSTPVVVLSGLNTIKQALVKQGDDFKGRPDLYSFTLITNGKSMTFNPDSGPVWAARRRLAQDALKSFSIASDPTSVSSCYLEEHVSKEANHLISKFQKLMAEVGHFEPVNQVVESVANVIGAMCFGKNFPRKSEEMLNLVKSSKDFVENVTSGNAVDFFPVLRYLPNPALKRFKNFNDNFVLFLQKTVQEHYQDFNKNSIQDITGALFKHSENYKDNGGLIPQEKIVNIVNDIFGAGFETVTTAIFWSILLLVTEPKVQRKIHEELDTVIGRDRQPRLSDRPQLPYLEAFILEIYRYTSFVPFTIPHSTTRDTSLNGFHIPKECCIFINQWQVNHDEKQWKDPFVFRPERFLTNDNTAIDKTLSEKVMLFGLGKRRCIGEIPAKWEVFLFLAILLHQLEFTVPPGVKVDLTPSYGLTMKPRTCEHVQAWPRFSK
Briefly: Fluorescence-based CYP assay, recombinant CYP1A2r, substrate EFC. It counts as in vitro ADME. The settings on record: concentrations up to 80 µM. Here is the method:
These assays were performed by methods similar to those described by VanAlstine and Hough, Stresser et al., Wulff et al., Henderson et al., and Crespi et al., with minor modifications. All incubations were performed in a final volume of 200 µL of 50 mM potassium phosphate buffer at pH 7.4 containing 1% acetonitrile. CYP inhibitor studies were performed according to the parameters of Table 1. Substrate concentrations were chosen to be near known Km values. As described in the references cited, two different NADPH regenerating systems were used depending on the substrates used (Table 1). […] Samples were pre-incubated at 37°C for the designated times, and the reactions were initiated with the addition of a substrate and enzyme mixtures (Table 1). […] For the assays utilizing the “high” regenerating system, enzyme reactions were terminated at the designated time by the addition of 75 µL of 2N NaOH, followed by a 2 h post-incubation at 37°C. Product formation was then measured at the designated wavelengths (Table 1). For the “low” regenerating system assays, blanks and standards were prepared in 0.1 mL buffer without the regenerating system. For the “high” regenerating system assays, blanks and standards containing 0.1 mL of buffer received 75 µL of 2N NaOH following pre-incubation.

Consider `Clc1ccc(COC(Cn2ccnc2)c2ccc(Cl)cc2Cl)c(Cl)c1` (stereo not shown) [miconazole], for which the “Inhibition of CYP1A2r (in words)” value is given as “did not inhibit”.
